Measured values taken from patent US7507730B2, “Substituted pyrazolo[1,5-a]pyrimidines as potassium channel activators” (Bristol-Myers Squibb Company, priority 2005, dated 2009).

Biological target: Kv1.5 (Homo sapiens, UniProt P22460)
Experiment: Kv1.5 inhibition assay (IKur inhibitor assay per cited references)
Assay type: cell-based
Details: for Kv1.5% inhibition / inhibition at 0.3 µM: at 0.3 μM
Source text: Assays to determine the degree of activity of a compound as an IKur inhibitor are well known in the art and are described in references such as J. Gen. Physiol. Apr.; 101 (4):513-43, and Br. J. Pharmacol. 1995 May; 115(2):267-74.

Sequence of Kv1.5 (P22460 whole entry): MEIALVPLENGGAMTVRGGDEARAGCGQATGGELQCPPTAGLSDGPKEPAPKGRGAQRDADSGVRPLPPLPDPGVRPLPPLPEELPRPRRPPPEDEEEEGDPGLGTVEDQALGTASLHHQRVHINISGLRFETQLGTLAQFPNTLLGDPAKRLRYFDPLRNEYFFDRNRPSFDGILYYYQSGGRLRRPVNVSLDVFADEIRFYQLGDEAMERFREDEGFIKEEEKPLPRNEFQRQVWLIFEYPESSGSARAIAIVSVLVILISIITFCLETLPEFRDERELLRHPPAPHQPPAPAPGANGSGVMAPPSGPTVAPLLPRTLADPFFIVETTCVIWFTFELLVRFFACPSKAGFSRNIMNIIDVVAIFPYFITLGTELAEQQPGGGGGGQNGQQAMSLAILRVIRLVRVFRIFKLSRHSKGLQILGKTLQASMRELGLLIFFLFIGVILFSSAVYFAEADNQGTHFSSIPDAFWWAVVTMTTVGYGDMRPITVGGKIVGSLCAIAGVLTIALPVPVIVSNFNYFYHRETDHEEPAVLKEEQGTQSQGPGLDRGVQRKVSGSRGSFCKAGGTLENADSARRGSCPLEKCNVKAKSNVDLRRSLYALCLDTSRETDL

Row | inhibition at 0.3 µM | SMILES | other results
1 |  | COc1ccc(S(=O)(=O)C2=C(CO)Nc3cc(C(F)(F)F)nn3C2c2ccc(Cl)cc2)cc1 (single isomer, unassigned) [Example 49 Isomer 1, (7-(4-Chlorophenyl)-6-(4-methoxyphenylsulfonyl)-2-(trifluoromethyl)-4,7-dihydropyrazolo[1,5-a]pyrimidin-5-yl)methanol] | Kv1.5% inhibition: 19.6%
2 |  | CCCS(=O)(=O)N(C)C(=O)C1=C(C)Nc2cc(C(F)(F)F)nn2C1c1ccc(Cl)c(Cl)c1 (single isomer, unassigned) [Example 91 Isomer 2, 7-(3,4-Dichlorophenyl)-N,5-dimethyl-N-(propylsulfonyl)-2-(trifluoromethyl)-4,7-dihydropyrazolo[1,5-a]pyrimidine-6-carboxamide] | Kv1.5% inhibition: 52%
3 |  | COc1ccc(S(=O)(=O)C2=C(C)Nc3cc(C)nn3C2c2ccc(Cl)c(Cl)c2)cc1 (single isomer, unassigned) [Example 8 Isomer 1, 7-(3,4-Dichlorophenyl)-6-(4-methoxyphenylsulfonyl)-2,5-dimethyl-4,7-dihydropyrazolo[1,5-a]pyrimidine] | IC50 (read-out: Kv1.5 IC50): 23 nM
4 | 8.5% | Cc1cc2nc(C)c(S(=O)(=O)Cc3ccccc3)c(-c3ccc(Cl)c(Cl)c3)n2n1 (racemic) [Example 15, 6-(Benzylsulfonyl)-7-(3,4-dichlorophenyl)-2,5-dimethylpyrazolo[1,5-a]pyrimidine] | 
5 | 59.3% | CC1=C(S(=O)(=O)C2CCCCC2)C(c2ccc(Cl)c(Cl)c2)n2nc(C)cc2N1 (single isomer, unassigned) [Example 10 Isomer 2, 6-(Cyclohexylsulfonyl)-7-(3,4-dichlorophenyl)-2,5-dimethyl-4,7-dihydropyrazolo[1,5-a]pyrimidine] | 
6 | 94.5% | CC1=C(S(=O)(=O)c2ccc(Cl)cc2)C(c2ccc(C)c(F)c2)n2nc(C(F)(F)F)cc2N1 (single isomer, unassigned) [Example 42 Isomer 1, 6-(4-Chlorophenylsulfonyl)-7-(3-fluoro-4-methylphenyl)-5-methyl-2-(trifluoromethyl)-4,7-dihydropyrazolo[1,5-a]pyrimidine] | 
7 | 36.2% | CC1=C(S(=O)(=O)c2ccc(Cl)cc2)C(c2ccc(Cl)c(Cl)c2)n2nc(C(F)(F)F)cc2N1 (single isomer, unassigned) [Example 4 Isomer 2, 6-(4-Chlorophenylsulfonyl)-7-(3,4-dichlorophenyl)-5-methyl-2-(trifluoromethyl)-4,7-dihydropyrazolo[1,5-a]pyrimidine] | 
8 | 7.8% | CC1=C(S(=O)(=O)c2ccccc2)C(c2ccc(Cl)s2)n2nc(C(F)(F)F)cc2N1 (racemic) [Example 20, 7-(5-Chlorothiophen-2-yl)-5-methyl-6-(phenylsulfonyl)-2-(trifluoromethyl)-4,7-dihydropyrazolo[1,5-a]pyrimidine] | 
9 | 42.3% | COc1ccc(S(=O)(=O)C2=C(C)Nc3cc(C)nn3C2c2ccc(Cl)cc2)cc1 (single isomer, unassigned) [Example 19 Isomer 2, 7-(4-Chlorophenyl)-6-(4-methoxyphenylsulfonyl)-2,5-dimethyl-4,7-dihydropyrazolo[1,5-a]pyrimidine] | 
10 | 34% | CC1=C(S(=O)(=O)c2ccc(Cl)cc2)C(c2cc3ccccc3n2C)n2nc(C(F)(F)F)cc2N1 (racemic) [Example 72, 6-(4-Chlorophenylsulfonyl)-5-methyl-7-(1-methyl-1H-indol-2-yl)-2-(trifluoromethyl)-4,7-dihydropyrazolo[1,5-a]pyrimidine] | 
11 |  | COc1ccccc1S(=O)(=O)C1=C(C)Nc2cc(C(F)(F)F)nn2C1c1ccc(Cl)cc1 (single isomer, unassigned) [Example 46 Isomer 2, 7-(4-Chlorophenyl)-6-(2-methoxyphenylsulfonyl)-5-methyl-2-(trifluoromethyl)-4,7-dihydropyrazolo[1,5-a]pyrimidine] | Kv1.5% inhibition: 74.7%
